Read-outs that look alike come from different tables or passages of the source.
Legend:
LoVo = experiment: MTT test, overall cell growth; assay type: cell-based, human; conditions: 72 hours of incubation
Procedure: (§1) In order to characterize the in vitro activities of the compounds according to the invention, MTT tests were carried out. The MTT test, which is a well-known test in the art, is an indirect technique that rapidly measures, i.e. within 5 days, the effect of a given product on the overall cell growth. This test measures the number of metabolically active living cells that are able to transform the MTT product (3-(4,5-dimethylthiazol-2-yl)-2,5 diphenyl tetrazolium bromide), having a yellowish color, to the blue product formazan dye by mitochondrial reduction. The amount of formazan obtained at the end of the experiment is measured with a spectrophotometer and is directly proportional to the number of living cells. Determination of the optical density enables a quantitative measurement of the effect of the investigated compounds as compared to the control condition (untreated cells) and to compare it to other reference compound. In the following examples different compounds according to the invention were tested and compared to the reference compound being uscharin.
(§2) Six human cancer cell lines, described in Table C, were tested in the presence of compounds according to the invention. These cell lines covered four histological cancer types, being Glioma, colon, lung and bladder cancer. The cells were allowed to grow in 96-well micro wells with a flat bottom with an amount of 100 μl of cell suspension per well in reason to 4000 cells/well depending on cell type. Each cell line was seeded in its own cell culture medium (Table C).
(§3) After a 24-hour period of incubation at 37° C., the culture medium is replaced by 100 μl of fresh medium in which the compound to be tested has been dissolved at different required concentrations. Different compounds were tested at 10^−9 M, 5×10^−9 M, 10^−8 M, 5×10^−8 M, 10^−7 M, 5×10^−7 M, 10^−6 M, 5×10^−6 M et 10^−5 M. Each experimental condition is carried out in hexaplicate. The compounds tested are 2″ oxo-voruscharin, and compounds B, C, D, E, H and I represented in Table B above.
(§4) After 72 hours of incubation at 37° C. with the compound (experimental conditions) or without the compound (control condition), the medium was replaced by 100 μl MTT at the concentration of 1 mg/ml dissolved in RPMI. The micro wells were subsequently incubated during 3 hours at 37° C. and centrifuged at 400 g during 10 minutes. The MTT was removed and formazan crystals formed, were dissolved in 100 μl DMSO. The micro wells were shaken for 5 minutes and read on a spectrophotometer at the wavelengths of 570 nm corresponding to the maximum formazan absorbance wavelength, and of 630 nm, which is the background noise wavelength.
(§5) For each experimental condition, the mean OD associated with the SEM (standard error of the mean) for each condition (6 wells) was calculated. The percentage of remaining living cells in comparison with the control was calculated. Results of these experiments are represented in FIGS. 2 to 8.

U-373 MG = experiment: MTT test, overall cell growth; assay type: cell-based, human; conditions: U-373, MTT, 72 hours of incubation
Procedure: as §1, §2, §3, §4, §5

Hs683 = experiment: MTT test, overall cell growth; assay type: cell-based, human
Procedure: as §1, §2, §3, §4, §5

HCT-15 = experiment: MTT test, overall cell growth; assay type: cell-based, human
Procedure: as §1, §2, §3, §4, §5

A549 = experiment: MTT test, overall cell growth; assay type: cell-based, human; conditions: 72 hours of incubation
Procedure: as §1, §2, §3, §4, §5

J82 = experiment: MTT test, overall cell growth; assay type: cell-based, human
Procedure: as §1, §2, §3, §4, §5

[1] = Maximum Tolerated Dose in healthy mice; assay type: in vivo; conditions: single administration in mice, healthy animals, 14 days post-injection
Procedure: The Maximum Tolerated Dose (MTD) of a given drug is defined as the maximum amount of a drug which can be administered acutely (i.e. in one i.p., i.v., s.c. or per os single dose) to healthy animals, i.e. animals not grafted with tumors. The survival times and weights of the animals are recorded up to 14 days post-injection. Five different doses of each drug are used for the determination of the MTD index. When the MTD index is higher than 160 mg/kg (i.p. administration) the drug is usually considered to be non-toxic, and the highest dose administered to tumor-bearing mice is MTD/2=80 mg/kg. Each experimental group was composed of 3 mice for the determination of the MTD index.

Hs683 human cancer cells = experiment: Cell cycle kinetics by flow cytometry (propidium iodide); assay type: cell-based; design: key to Effect on cell cycle kinetics, G0/G1 / Effect on cell cycle kinetics, S / Effect on cell cycle kinetics, G2/M: n.s. means no significant; ** means highly significant; *** very highly significant
Procedure: (§6) Cell lines were seeded in flasks (25 cm^2 area) containing 7 ml of culture medium. After 48 hours incubation at 37° C. the cell culture medium was replaced by a fresh medium in which the substance to be tested had been dissolved at the different concentrations required. Uscharin and 2″ oxo-voruscharin were tested at concentrations, which kill 50% and 30% of the cell population, represented by the IC50 and IC30 values, respectively. After 24 or 72 hours of treatment the cells were harvested in suspension, washed in Phosphate Buffer Saline (PBS) at 4° C. and permeabilized with 70% ethanol (at 4° C.) overnight at −20° C. The cells were then washed with PBS and incubated with propidium iodide solution (80 μg/ml) for 30 minutes at 37° C. and afterward at 4° C. overnight. Ribonuclease A (3% V/V) was added to the PI solution to break doubled-stranded RNA. The portrait of the cell cycle was established for each sample. Software incorporated into the flow cytometer was used to define precisely the percentage of cells in the different cell cycle phases. Each cell cycle phase was reported in terms of peak surface and calculated as a percentage. The surface of the entire cell cycle was 100%. Each experiment was carried out 3 times. The mean percentage of each different phase and the standard error of the related mean were calculated. Each cell cycle phase of a given condition was compared with the same cell cycle phase of control. The non-treated cells constituted control.
(§7) Uscharin and 2″ oxo-voruscharin are highly toxic to human tumor cell lines. The concentrations used in the flow cytometry experiments were chosen in accordance with the MTT results (example 2). Three human cancer cell lines, Hs683, J82, and HCT-15 were tested and doses that killed 30 and 50 percent of the cells were applied to investigate whether uscharin and 2″ oxo-voruscharin promoted an accumulation in one of the cell cycle phases when the cell cultures were treated for 24 or 72 hours with increasing concentrations of the compounds. The IC50 and IC30 values for uscharin and 2″ oxo-voruscharin corresponding to the three tested cell lines are represented in Table E.

J82 human cancer cells = experiment: as above; assay type: cell-based; design: key to Effect on cell cycle kinetics, G0/G1 / Effect on cell cycle kinetics, S / Effect on cell cycle kinetics, G2/M: n.s. means no significant; ** means highly significant; *** very highly significant
Procedure: as §6, §7

[2] = system: HCT-15 human cancer cells; experiment: as above; assay type: cell-based; design: key to Effect on cell cycle kinetics, G0/G1 / Effect on cell cycle kinetics, S / Effect on cell cycle kinetics, G2/M: n.s. means no significant; ** means highly significant; *** very highly significant
Procedure: as §6, §7

[3] = Hs683, MTT, 72 hours of incubation, read-out: IC50 value
[4] = HCT-15, MTT, 72 hours of incubation, read-out: IC50 value
[5] = J82, MTT, 72 hours of incubation, read-out: IC50 value

Compound: CC1CC2(NC(CC(=O)c3ccccc3)CS2)C2(O)OC3CC4(CO)C(CCC5C4CCC4(C)C(C6=CC(=O)OC6)CCC54O)CC3OC2O1 (single isomer, unassigned) [Compound I]
- IC50 (LoVo): 0.01 to 0.05 µM
- IC50 (U-373 MG): 0.01 to 0.05 µM
- IC50 (Hs683; [3]): 0.001 to 0.005 µM
- IC50 (HCT-15; [4]): 0.01 to 0.05 µM
- IC50 (A549): 0.001 to 0.005 µM
- IC50 (J82; [5]): 1 to 5 µM
- MTD index [1]: 80 mg/kg

Compound: CC1CC2(N=CCS2)C2(O)OC3CC4(CO)C(CCC5C4CCC4(C)C(C6=CC(=O)OC6)CCC54O)CC3OC2O1 (centres unmarked) [Compound D]
- IC50 (LoVo): 0.001 to 0.005 µM
- IC50 (U-373 MG): 0.01 to 0.05 µM
- IC50 (Hs683; [3]): 0.001 to 0.005 µM
- IC50 (HCT-15; [4]): 0.01 to 0.05 µM
- IC50 (A549): 0.01 to 0.05 µM
- IC50 (J82; [5]): 5 to 10 µM
- MTD index [1]: 10 mg/kg

Compound: CC1CC2(NC(CC(=O)c3ccccc3)CS2)C2(O)OC3CC4(CO)C(CCC5C4CCC4(C)C(C6=CC(=O)OC6)CCC54O)CC3OC2O1 (single isomer, unassigned) [Compound H]
- IC50 (LoVo): 0.01 to 0.05 µM
- IC50 (U-373 MG): 0.01 to 0.05 µM
- IC50 (Hs683; [3]): 0.001 to 0.005 µM
- IC50 (HCT-15; [4]): 0.01 to 0.05 µM
- IC50 (A549): 0.001 to 0.005 µM
- IC50 (J82; [5]): 1 to 5 µM
- MTD index [1]: 80 mg/kg

Compound: CC(=O)OCC12CC3OC4(O)C(OC(C)CC45NC(=O)CS5)OC3CC1CCC1C2CCC2(C)C(C3=CC(=O)OC3)CCC12O (centres unmarked) [Compound C]
- IC50 (LoVo): 1 to 5 µM
- IC50 (U-373 MG): 1 to 5 µM
- IC50 (Hs683; [3]): 1 to 5 µM
- IC50 (HCT-15; [4]): 1 to 5 µM
- IC50 (A549): 1 to 5 µM
- IC50 (J82; [5]): > 10 µM
- MTD index [1]: > 40 mg/kg

Compound: CC(=O)OCC12CC3OC4(O)C(OC(C)CC45N=CCS5)OC3CC1CCC1C2CCC2(C)C(C3=CC(=O)OC3)CCC12O (centres unmarked) [Compound E]
- IC50 (LoVo): 1 to 5 µM
- IC50 (U-373 MG): 1 to 5 µM
- IC50 (Hs683; [3]): 1 to 5 µM
- IC50 (HCT-15; [4]): 1 to 5 µM
- IC50 (A549): 1 to 5 µM
- IC50 (J82; [5]): > 10 µM

Compound: C[C@@H]1CC2(N=CCS2)C2(O)O[C@@H]3C[C@]4(C=O)C5CC[C@]6(C)[C@@H](C7=CC(=O)OC7)CC[C@]6(O)[C@@H]5CC[C@H]4C[C@H]3O[C@@H]2O1 (some centres unmarked) [uscharin]
- IC50 (LoVo; Homo sapiens): 0.005 to 0.01 µM
- IC50 (U-373 MG; Homo sapiens, U373 MG): 0.01 to 0.05 µM
- IC50 (Hs683; Homo sapiens, Hs 683, Hs683, MTT, 72 hours of incubation, read-out: IC50 value): 0.001 to 0.005 µM
- IC50 (Hs683; Homo sapiens, Hs 683, Hs683, Table E, concentration used for flow cytometry, chosen in accordance with MTT results, read-out: IC50): 0.17 µM
- IC30 (Hs683; Hs683, Table E, concentration which kills 30% of the cell population): 0.043 µM
- IC30 (HCT-15; HCT-15, Table E, concentration which kills 30% of the cell population): 0.0085 µM
- IC50 (HCT-15; Homo sapiens, HCT-15, MTT, 72 hours of incubation, read-out: IC50 value): 0.01 to 0.05 µM
- IC50 (HCT-15; Homo sapiens, HCT-15, Table E, concentration used for flow cytometry, chosen in accordance with MTT results, read-out: IC50): 0.043 µM
- IC50 (A549; Homo sapiens): 0.01 to 0.05 µM
- IC50 (J82; Homo sapiens, J82, MTT, 72 hours of incubation, read-out: IC50 value): 5 to 10 µM
- IC50 (J82; Homo sapiens, J82, Table E, concentration used for flow cytometry, chosen in accordance with MTT results, read-out: IC50): 4.3 µM
- IC30 (J82; J82, Table E, concentration which kills 30% of the cell population): 1.7 µM
- cell cycle, S-phase (Hs683 human cancer cells; Hs683, 1.7×10^−7 M for 24 and 72 hours, statistically significant): accumulation of cells in S-phase
- cell cycle, G2/M-phase (Hs683 human cancer cells; Hs683, 1.7×10^−7 M for 24 hours): significant accumulation in G2/M-phase
- Effect on cell cycle kinetics, G0/G1 (Hs683 human cancer cells; Hs683, 24 h): n.s.
- Effect on cell cycle kinetics, G2/M (Hs683 human cancer cells; Hs683, 24 h): ***
- Effect on cell cycle kinetics, S (Hs683 human cancer cells; Hs683, 24 h): ***
- Effect on cell cycle kinetics, G0/G1 (Hs683 human cancer cells; Hs683, 72 h): n.s.
- Effect on cell cycle kinetics, G2/M (Hs683 human cancer cells; Hs683, 72 h): n.s.
- Effect on cell cycle kinetics, S (Hs683 human cancer cells; Hs683, 72 h): ***
- Effect on cell cycle kinetics, G0/G1 (J82 human cancer cells; J82, 24 h): n.s.
- Effect on cell cycle kinetics, G2/M (J82 human cancer cells; J82, 24 h): n.s.
- Effect on cell cycle kinetics, S (J82 human cancer cells; J82, 24 h): ***
- Effect on cell cycle kinetics, G0/G1 (J82 human cancer cells; J82, 72 h): n.s.
- Effect on cell cycle kinetics, G2/M (J82 human cancer cells; J82, 72 h): n.s.
- Effect on cell cycle kinetics, S (J82 human cancer cells; J82, 72 h): ***
- cell cycle, S-population (J82 human cancer cells; J82, independent of the concentrations applied or the timing of treatment): significant increase in the S-population
- Effect on cell cycle kinetics, G0/G1 ([2]; HCT-15, 24 h): n.s.
- Effect on cell cycle kinetics, G2/M ([2]; HCT-15, 24 h): n.s.
- Effect on cell cycle kinetics, S ([2]; HCT-15, 24 h): n.s.
- Effect on cell cycle kinetics, G0/G1 ([2]; HCT-15, 72 h): n.s.
- Effect on cell cycle kinetics, G2/M ([2]; HCT-15, 72 h): n.s.
- Effect on cell cycle kinetics, S ([2]; HCT-15, 72 h): **
- cell cycle, S-phase ([2]; HCT-15, 72 hours, highest concentration tested (4.3×10^−8 M uscharin, 1.2×10^−8 M 2″oxo-voruscharin)): accumulation in S-phase
